The text below walks through data of patent publication US12390467B2, “Necroptosis inducers or autophagy inhibitors or a combination thereof” (The University of Toledo, priority 2018, dated 2025).

Holding throughout (type): cell-based
For series [1], the system named is EMT and Wnt/β-catenin signaling proteins in BT-20 cells. Put plainly: Western blot, EMT and Wnt/β-catenin proteins, BT-20. As for the experimental part:
The TNBC cells were seeded in a culture flask and incubated for 24 h. The cells were then incubated with different concentrations of the lead compounds and re-incubated for an additional 12 or 24 h. […] The bicinchoninic acid (BCA) was used to determine protein concentration in the cell extracts (G-BIOSCIENCES, St. Louis, MO, USA). […] The membrane was blocked using 5% milk in Tris-buffered Tween 20 saline for 30 minutes. The membrane was then incubated overnight with primary antibodies against Bak, Bax, Bcl-2, caspase9, caspase 3, caspase 7, PARP, cytochrome c, N-cadherin, E-cadherin, c-Myc, dishevelled segment polarity protein 3 (DVL3), dishevelled segment polarity protein 2 (DVL2), Vimentin, mitogen-activated protein kinase kinase (MAPKK also known as MEK1/2), β-catenin, low-density lipoprotein receptor-related protein 6 (LRP6), receptor-interacting protein kinase (RIP), phosphorylated RIP (p-RIP), mixed lineage kinase domain like pseudokinase(MLKL), Caspase 8, light chain 3 (LC3), lysosomal-associated membrane protein 1 (LAMP1), unc-51 like autophagy activating kinase 1 (ULK1), ras associated protein 7 (Rab7), ras associated protein 5 (Rab5), Beclin 1, mechanistic target of rapamycin (mTOR), tumor necrosis factor alpha (TNF-α), tumor necrosis factor receptor 1 (TNFR1), tumor necrosis factor receptor 2 (TNFR2), Fas-associated protein with death domain (FADD), Fas ligand (Fas), TNF-related apoptosis-inducing ligand (TRAIL), death receptor 5 (DR5), Tumor necrosis factor receptor type 1-associated DEATH domain (TRADD), receptor-interacting protein kinase 3 (RIP3), β-actin or GAPDH in 1:1000 dilution in 5% milk or 5% BSA at 4° C. Horseradish peroxidase-labeled (HRP) anti-rabbit or anti-mouse secondary antibodies (1:5,000 dilution) were added and incubated the next day for an additional 1 h. A ChemiDoc™ MP System imaging system from Bio-Rad (Hercules, CA, USA) was used for blots reading. Blots were used to obtain the protein bands, followed by quantification of the bands using image J software (NIH, Bethesda, MD, USA). All of the data were expressed as the ratio of β-actin or GAPDH.

In series [2] the test system is MCF-7 (non-TNBC cell line). The series can be described thus: MTT cell viability assay, MCF-7. The settings on record: read-out: IC50 ± SD, MCF-7. As for the experimental part:
The following cancer and non-cancer cell lines were used in the initial cytotoxicity screening of the TPH104 compounds: triple negative breast cancer (TNBC): MDA-MB468, MDA-MB 231, and BT-20; non-TNBC: MCF-7 and ZR-75-1; ovarian: Ov2008; prostate: DU145; colon: HCT-116, S1, and LOVO; lung: H460; normal kidney: HEK-293; normal breast: HMEC; and normal colon: CRL-1459. All cells were cultured in Dulbecco's modified Eagle medium (DMEM), supplemented with 10% fetal bovine serum (FBS), and 1% penicillin/streptomycin (P/S). Cells were allowed to grow as adherent monolayers in T25 flasks in a humidified incubator with 5% CO2 at 37° C. for a period of 24 h, unless otherwise specified for certain experiments.
The MTT assay was used to determine the cytotoxicity of all of the compounds. Briefly, in a 96-well flat-bottom cell culture plate, the cells were seeded at a density between 3-5×10^3 cells/well (180 μl in each well) and incubated for 24 h (a hemocytometer was used for cell counting). The next day, the cells were incubated with different concentrations of the nine compounds (0, 0.1, 0.3, 1, 3, 10, 30, and 100 μM) for 72 h. After 72 h, 20 μl of 5 mg/ml of 3-(4,5-dimethylthiazol-2-yl)-2,5-diphenyltetrazolium bromide (MTT) was added to the plate and incubated with the cells for 3 h at 37° C. In this experiment, the living cells will reduce the soluble MTT dye to non-soluble purple formazan crystals. Following incubation, the media containing MTT removed via suction and 100 μL of 100% dimethyl sulfoxide (DMSO) was added to dissolve the formazan crystals. Subsequently, the plate was shaken for 2 minutes and the absorbance was measured at a wavelength of 570 nm using a SpectraMax iD3 Multi-Mode Microplate Reader (Molecular Devices, Sunnyvale, CA). The IC50 values of each compound were calculated and used to determine the selectivity ratio (IC50 in normal cells/IC50 in cancer cells) of each compound as previously described. Based on the results obtained from these experiments, the compound TPH104, which had the lowest IC50 value, was selected for further experiments.
On the technique in general: Tetrazolium dyes change colour on reduction, which living cells bring about.

The target of series [3] is T1, BCRP (ABCG2), MCF-7 M100 breast cancer cells (Homo sapiens, UniProt Q9UNQ0).
T1 construct: endogenous in cells; host or cells: MCF-7 M100 breast cancer cells
Put plainly: Hoechst 33342 assay for BCRP modulation. Particulars: concentration dependent. Here is the method: Ability of BCRP to efflux nuclear stain Hoechst 33342 was used to identify the molecules which interfere with BCRP transporter activity. About 14000 cells of MCF-7 M100 breast cancer cells were seeded in each well in 96 well plates and allowed to grow until confluency for 4-5 days. Then media was replaced with phenol red free RPMI media and cells were treated with indicated concentrations of TPH104s and 5 μg/mL of Hoechst 33342. Fluorescence measured after 60 minutes with excitation at 361/20 nm and at emission 497/20 nm using the BioTek Cytation 5 imaging multi-mode reader (Bio-Tek, Winooski, VT). DMSO (0.5% v/v) was used as the vehicle, and 0.5 μM of BCRP inhibitor, Ko143 was used as a positive control and 15 μM of P-gp modulator, verapamil was used as negative control.

In series [4] the target is T2, P-gp (ABCB1), DU145TXR prostate cancer cells (Homo sapiens, UniProt P08183).
T2 construct: endogenous in cells; host or cells: DU145TXR prostate cancer cells
Put plainly: Calcein AM assay for P-gp modulation. The settings on record: concentration dependent. Here is the method:
Ability of P-gp to efflux Calcein AM is used to identify the molecules which interfere with P-gp transporter activity. About 10000 cells of DU145TXR prostate cancer cells were seeded in each well in 96 well plates and allowed to grow until confluency for 4-5 days. Then media was replaced with phenol red free RPMI media and cells were treated with indicated concentrations of TPH104s and 1 μg/mL of Calcein AM. Fluorescence measured after 60 minutes with excitation at 485/20 nm and at emission 535/20 nm using the BioTek Cytation 5 imaging multi-mode reader (Bio-Tek, Winooski, VT). DMSO (0.5% v/v) was used as the vehicle, and 15 μM of Pgp inhibitor SMU 45 was used as a positive control. (n=6 in each trial).

The structures appear in SMILES notation. Read-outs that look alike come from different tables or passages of the source.

T2 sequence (P08183 whole entry): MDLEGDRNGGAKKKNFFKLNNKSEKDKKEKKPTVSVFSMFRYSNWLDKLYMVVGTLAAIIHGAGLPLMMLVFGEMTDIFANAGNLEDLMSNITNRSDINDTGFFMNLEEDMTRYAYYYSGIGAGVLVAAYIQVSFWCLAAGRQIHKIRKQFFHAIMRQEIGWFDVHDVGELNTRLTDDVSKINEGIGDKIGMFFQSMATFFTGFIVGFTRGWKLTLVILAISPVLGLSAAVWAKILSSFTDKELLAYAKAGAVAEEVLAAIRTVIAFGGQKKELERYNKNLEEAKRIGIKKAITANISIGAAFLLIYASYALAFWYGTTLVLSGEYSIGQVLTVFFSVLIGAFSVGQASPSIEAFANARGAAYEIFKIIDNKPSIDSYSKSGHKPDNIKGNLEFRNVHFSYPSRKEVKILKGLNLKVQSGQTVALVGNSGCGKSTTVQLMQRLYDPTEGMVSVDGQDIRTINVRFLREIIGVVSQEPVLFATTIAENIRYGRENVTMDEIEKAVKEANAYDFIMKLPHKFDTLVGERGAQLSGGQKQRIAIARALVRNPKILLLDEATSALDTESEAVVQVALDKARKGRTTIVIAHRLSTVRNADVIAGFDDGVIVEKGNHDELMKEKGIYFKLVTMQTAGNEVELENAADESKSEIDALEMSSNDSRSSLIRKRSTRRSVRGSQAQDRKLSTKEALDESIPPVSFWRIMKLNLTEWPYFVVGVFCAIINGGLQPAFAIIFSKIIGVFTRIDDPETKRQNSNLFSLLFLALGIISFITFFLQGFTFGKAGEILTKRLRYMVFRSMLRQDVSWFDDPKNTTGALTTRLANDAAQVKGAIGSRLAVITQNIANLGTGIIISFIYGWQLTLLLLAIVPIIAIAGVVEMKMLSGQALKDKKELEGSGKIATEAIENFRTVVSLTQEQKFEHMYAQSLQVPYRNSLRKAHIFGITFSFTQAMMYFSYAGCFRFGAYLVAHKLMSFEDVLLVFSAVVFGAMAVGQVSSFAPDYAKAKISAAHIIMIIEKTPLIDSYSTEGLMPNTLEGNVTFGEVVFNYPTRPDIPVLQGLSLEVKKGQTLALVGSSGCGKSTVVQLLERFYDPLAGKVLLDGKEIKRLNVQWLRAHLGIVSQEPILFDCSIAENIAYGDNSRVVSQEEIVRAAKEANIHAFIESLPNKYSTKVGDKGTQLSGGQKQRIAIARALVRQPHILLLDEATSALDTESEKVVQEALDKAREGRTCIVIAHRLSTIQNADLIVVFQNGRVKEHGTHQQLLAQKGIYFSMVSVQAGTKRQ
T1 sequence (Q9UNQ0 whole entry): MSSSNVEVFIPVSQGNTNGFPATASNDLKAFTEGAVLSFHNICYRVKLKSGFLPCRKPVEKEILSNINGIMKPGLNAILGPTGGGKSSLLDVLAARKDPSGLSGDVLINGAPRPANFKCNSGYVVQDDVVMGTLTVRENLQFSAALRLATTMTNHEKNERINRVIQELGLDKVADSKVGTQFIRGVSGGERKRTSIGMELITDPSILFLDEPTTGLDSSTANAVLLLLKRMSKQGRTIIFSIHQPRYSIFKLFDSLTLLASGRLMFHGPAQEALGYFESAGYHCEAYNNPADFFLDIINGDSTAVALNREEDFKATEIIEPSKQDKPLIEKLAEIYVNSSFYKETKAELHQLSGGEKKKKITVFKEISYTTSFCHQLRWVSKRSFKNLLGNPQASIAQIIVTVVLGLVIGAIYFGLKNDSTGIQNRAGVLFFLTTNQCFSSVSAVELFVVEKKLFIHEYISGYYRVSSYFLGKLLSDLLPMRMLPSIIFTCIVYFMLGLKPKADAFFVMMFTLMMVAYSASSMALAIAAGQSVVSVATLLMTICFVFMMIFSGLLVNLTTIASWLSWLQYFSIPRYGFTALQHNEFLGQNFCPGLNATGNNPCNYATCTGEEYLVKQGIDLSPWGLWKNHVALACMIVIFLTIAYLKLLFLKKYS

The term IC50 denotes the point on the concentration scale where inhibition reaches its midpoint. Take `COc1ccc(O)c(/C=N/Nc2ncnc3scc(-c4ccc(C)cc4)c23)c1` [TPH104]: in series [1] (2 μM and 5 μM), the “expression levels of DVL3, DVL2, vimentin, and MEK1/2” value is “significantly decreased”; the “expression of N-cadherin” value was “significantly decreased”. For the same molecule, in series [1] (0.5, 1, 2, and 5 μM), the “expression of c-Myc” value is listed as “significantly decreased” and the “expression of β-catenin or LRP6” value was “did not significantly alter”. In addition, the “expression of E-cadherin” value in series [1] (1, 2, or 5 μM) is “significantly increased”. Besides, in series [2] (72 h), the IC50 amounted to 3.84 ± 1.36 µM. Moreover, the IC50 in series [2] (Homo sapiens, MCF7, 72 h) turned out to be 3.8 µM. For the same molecule, the “efflux function of ABCG2” value in series [3] was “blocking the efflux function”. Also, the “efflux function of ABCB1” value in series [4] was “blocking the efflux function”.
